Measured values from US9587225B2, “Low-molecular-compound for improving production, maintenance and proliferation of pluripotent stem cells, composition comprising the same, and culture method” (KOREA RESEARCH INSTITUTE OF BIOSCIENCE AND BIOTECHNOLOGY, priority 2012, dated 2017).

Columns and labels:
[1] = system: human skin fibroblasts; assay: Cell growth (total number of cells) during reprogramming culture; format: cell-based
Excerpt: In still another example of the present invention, whether the novel compound RSC-133 has the effect of promoting the growth and proliferation of cells in a culture process for inducing reprogramming was examined by measuring the total number of cells at various time points (FIG. 11). […] In addition, a change in the proliferation of cells during a culture process for inducing reprogramming was examined by a BrdU assay.
FIG. 11 is a graph showing the effect of RSC-133 on cell growth during a reprogramming process. The results were obtained in the same manner as those in FIG. 10. The values shown on the graph are mean values. The data ate are expressed as mean±SD (n=3).
FIG. 12 is a graph showing the results of examining the effect of RSC-133 on the growth of human skin fibroblasts or human skin fibroblasts infected with a reprogramming factor (OSKM) virus. The values shown on the graph are mean values. The data are mean±SD (n=3).
In addition, the growth rate of cells is associated with the self-renewal ability of embryonic stem cells. Thus, whether the novel compound RSC-133 can promote cell growth during reprogramming was examined. As a result, it could be seen that when reprogramming was induced while the cells were treated with RSC-133, the growth rate of the cells increased by about 1.7 times compared to that of the control group (FIG. 11). […]

[2] = system: human skin fibroblasts; assay: BrdU immunocytochemical analysis of proliferating cell population; format: cell-based
Protocol: Immunocytochemical analysis was performed using monoclonal antibody for bromodeoxyuridine (BrdU), and then percent BrdU positive cells are graphically shown. The values shown on the graph are mean values. The data are expressed as ±SD (n=3) (*P<0.05, by t-test).
The left panel is a set of graphs showing the results of immunocytochemical analysis performed using monoclonal antibody for BrdU, and the right panel is a graph showing the results of measurement of percent BrdU positive cells. The values shown on the graph are mean values. The data are expressed as mean±SD (n=3).
For immunostaining, cells were seeded on Matrigel-coated 4-well Lab-Tek chamber slides (Nunc, Naperville, Ill.) and cultured for 5 days under the indicated conditions. The cells were fixed in 4% paraformaldehyde at room temperature for 15 minutes, and then washed with PBS/0.2% BSA. Next, the cells were passed through PBS/0.2% BSA/0.1% Triton X-100 for 15 minutes, and then incubated with 4% normal donkey serum (Molecular Probes, Eugene, Oreg., USA) in PBS/0.2% BSA at room temperature for 1 hour. The cells were diluted with PBS/0.2% BSA, and then reacted with primary antibody at 4° C. for 2 hours. After washing, the cells were reacted with FITC- or Alexa594-conjugated secondary antibody (Invitrogen) in PBS/0.2% BSA at room temperature for 1 hour. The cells were counter-stained with 10 μg/ml DAPI. […]

[3] = system: human skin fibroblasts; assay: SA-β-gal senescence assay during reprogramming; format: cell-based; settings: 10 days after induction of reprogramming, compared to untreated control (OSKM alone) (FIG. 17)
[4] = system: H3K9ace; assay: H3K9 acetylation during reprogramming (immunocytochemistry, Western blot); format: cell-based, human
Protocol: The left panel is a set of photographs showing the results obtained by inducing the reprogramming of human skin fibroblasts, culturing the cells for 10 days in the presence or absence of RSC-133, and then analyzing the cells by immunocytochemistry using monoclonal antibodies for H3K9ace and an undifferentiation marker (Nanog) (scale bar=200 μm). […] H3 protein was used as an internal control.
For immunostaining, cells were seeded on Matrigel-coated 4-well Lab-Tek chamber slides (Nunc, Naperville, Ill.) and cultured for 5 days under the indicated conditions. The cells were fixed in 4% paraformaldehyde at room temperature for 15 minutes, and then washed with PBS/0.2% BSA. Next, the cells were passed through PBS/0.2% BSA/0.1% Triton X-100 for 15 minutes, and then incubated with 4% normal donkey serum (Molecular Probes, Eugene, Oreg., USA) in PBS/0.2% BSA at room temperature for 1 hour. The cells were diluted with PBS/0.2% BSA, and then reacted with primary antibody at 4° C. for 2 hours. After washing, the cells were reacted with FITC- or Alexa594-conjugated secondary antibody (Invitrogen) in PBS/0.2% BSA at room temperature for 1 hour. The cells were counter-stained with 10 μg/ml DAPI.
Most of various low-molecular-weight compounds known to be involved in the reprogramming process are involved genome methylation patterns, histone acetylation patterns or major signaling mechanisms. […]

[5] = system: total HDAC enzymes; assay: Activity of total HDAC enzymes during reprogramming; format: cell-based, human; settings: during reprogramming (FIG. 19 left)
Protocol: The values shown on the graph are mean values. The data are expressed as mean±SD (n=3) (*P<0.01, **P<0.005, by t-test).
Next, whether the above-described results were results of the inhibition of HDAC enzyme by RSC-133 during reprogramming of human skin fibroblasts was examined. […] According to the experimental method shown in FIG. 21, the expression levels of HDAC-family proteins were measured, and as a result, it could be seen that the expression level of HDAC1 in the test group treated with RSC-133 was inhibited at 10 days after treatment with RSC-133 compared to that of the control group (the light panel of FIG. 19 and FIG. 21). It was reported that HDAC1 can occupy the Oct4, Sox2, Klf4 and c-Myc gene loci in embryonic stem cells and that the expression of pluripotency-specific marker genes in HDAC1-deleted embryonic stem cells is increased. Thus, it is believed that RSC-133 can inhibit the function of HDAC1 and increase the H3K9ace level to stimulate the reprogramming process.

[6] = target: T1, DNA methyl transferase 1 (DNMT1) (Homo sapiens, UniProt P26358); assay: DNMT1 activity during reprogramming; format: cell-based; settings: 10 days after induction of reprogramming, compared to untreated control (OSKM alone) (FIG. 20)
T1 construct: endogenous in cells; host or cells: human skin (foreskin) fibroblasts (hFF, ATCC CRL-2097) transduced with OSKM retrovirus
T1 sequence (P26358 whole entry): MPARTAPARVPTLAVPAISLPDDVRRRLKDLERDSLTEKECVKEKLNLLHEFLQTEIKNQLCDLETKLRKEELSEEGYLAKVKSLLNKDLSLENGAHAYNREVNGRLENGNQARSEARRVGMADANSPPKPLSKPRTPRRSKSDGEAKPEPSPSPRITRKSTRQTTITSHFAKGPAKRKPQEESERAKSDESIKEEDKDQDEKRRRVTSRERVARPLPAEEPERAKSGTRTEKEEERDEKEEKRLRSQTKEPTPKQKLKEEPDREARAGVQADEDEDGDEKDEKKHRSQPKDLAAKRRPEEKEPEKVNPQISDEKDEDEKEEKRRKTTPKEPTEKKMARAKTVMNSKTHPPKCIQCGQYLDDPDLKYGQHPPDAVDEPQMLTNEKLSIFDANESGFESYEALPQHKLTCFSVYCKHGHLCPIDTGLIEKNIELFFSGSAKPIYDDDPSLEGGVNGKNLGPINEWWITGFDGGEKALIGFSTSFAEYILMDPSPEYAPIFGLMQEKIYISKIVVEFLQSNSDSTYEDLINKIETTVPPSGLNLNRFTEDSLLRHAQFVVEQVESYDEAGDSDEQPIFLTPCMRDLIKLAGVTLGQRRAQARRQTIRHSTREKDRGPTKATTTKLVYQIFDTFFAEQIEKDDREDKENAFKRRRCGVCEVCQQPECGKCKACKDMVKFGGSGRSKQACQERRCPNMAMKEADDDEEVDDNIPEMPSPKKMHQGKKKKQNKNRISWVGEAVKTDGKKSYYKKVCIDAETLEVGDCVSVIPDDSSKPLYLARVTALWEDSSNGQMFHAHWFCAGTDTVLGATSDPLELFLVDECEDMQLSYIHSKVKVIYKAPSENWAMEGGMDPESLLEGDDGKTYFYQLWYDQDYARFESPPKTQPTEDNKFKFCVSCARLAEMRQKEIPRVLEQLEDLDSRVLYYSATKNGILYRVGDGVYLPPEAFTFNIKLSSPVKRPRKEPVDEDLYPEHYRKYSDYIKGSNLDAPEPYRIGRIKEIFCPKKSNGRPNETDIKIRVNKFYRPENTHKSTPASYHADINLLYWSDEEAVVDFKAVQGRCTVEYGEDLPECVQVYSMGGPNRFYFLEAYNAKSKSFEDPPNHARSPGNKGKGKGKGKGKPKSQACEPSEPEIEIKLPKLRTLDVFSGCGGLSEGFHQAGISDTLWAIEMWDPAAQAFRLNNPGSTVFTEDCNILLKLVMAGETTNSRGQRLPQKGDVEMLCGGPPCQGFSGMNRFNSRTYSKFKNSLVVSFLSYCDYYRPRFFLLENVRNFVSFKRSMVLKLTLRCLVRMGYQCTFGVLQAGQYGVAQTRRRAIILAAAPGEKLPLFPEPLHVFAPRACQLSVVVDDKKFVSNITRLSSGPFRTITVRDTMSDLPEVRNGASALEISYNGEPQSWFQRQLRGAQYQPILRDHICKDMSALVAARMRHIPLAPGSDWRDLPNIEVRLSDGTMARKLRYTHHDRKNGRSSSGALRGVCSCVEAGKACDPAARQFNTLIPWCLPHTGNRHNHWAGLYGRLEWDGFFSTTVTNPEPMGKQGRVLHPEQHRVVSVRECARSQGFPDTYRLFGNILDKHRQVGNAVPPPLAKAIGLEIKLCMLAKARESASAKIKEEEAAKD
Excerpt: For comparison, the activity of DNMT1 in the absence of RSC-133 was set at 100%.
RSC133 regulates the activities of epigenetic regulators such as DNA methyltransferase (DNMT) and histone deacetylase (HDAC). At 10 days after induction of reprogramming by RSC133, the activity of DNMT1 was reduced by about 38% compared to that in an untreated control group (OSKM alone) (FIG. 20). Epigenetic chromatin remolding by DNA methylation and/or histone modification plays an important in a wide range of transcriptional regulation in the reprogramming process. […] The increased level of H3K9 histone acetylation (ace) is particularly associated with the restoration of pluripotency and reprogramming ability. It is known that DNA methylation by DNMT1 has a close connection with the change in chromatin status caused by HDAC activity.

activity of total HDAC enzymes [5]: slightly inhibited
reduction of the activity of DNMT1 [6]: about 38%
SMILES: NC(=O)c1cccc(NC(=O)/C=C/c2c[nH]c3ccccc23)c1 [RSC-133, 3-[3-(1H-indol-3-yl)-acrylamido]-benzamide]
growth of cells, reprogramming not induced ([1]; human skin fibroblasts or OSKM-transfected fibroblasts, reprogramming not induced (FIG. 12)): increased the growth of the cells
increase of growth rate of the cells during reprogramming ([1]; reprogramming induced, compared to control group (FIG. 11)): about 1.7 times
BrdU-positive cell population, reprogramming not induced ([2]; OSKM-transfected human skin fibroblasts, reprogramming not induced (FIG. 14)): increased BrdU-positive cell population
BrdU-positive cell population during the reprogramming process ([2]; during reprogramming (FIG. 13)): increased BrdU-positive cell population
decrease of the ratio of SA-β-gal-positive cells [3]: 37.23%
H3K9ace level by Western blot ([4]; H3 as internal control (FIG. 18 right)): The same results were also obtained
ratio of undifferentiated cells having a high H3K9ace level (immunocytochemistry) ([4]; cultured 10 days in presence or absence of RSC-133 (FIG. 18 left)): higher in the test group treated with RSC-133 than in the control group
